Experimental findings from paper PMC11831592, “Repurposing Linezolid in Conjunction with Histone Deacetylase Inhibitor Access in the Realm of Glioblastoma Therapies” (Journal of Medicinal Chemistry, 2025) are described below.

Data set [1] deals with Rad51 protein in PT#3R GBM cells. The experiment in a line: Immunoprecipitation and ubiquitination assay. Type of data set: cell-based, human. The following applies: 24 h, IP with anti-Rad51 antibody.
Data set [2] has as its system PT#3. Nature of the data set: CCK8 cell proliferation assay, PT#3. In kind it is cell-based. Particulars: Homo sapiens; PT#3, CCK8, 72 h. The protocol:
Cell viability and drug cytotoxicity were determined by a CCK-8 kit (Cell Counting Kit-8, CK04-13, MD, USA) (CCK8, C0005, Target Molecule Corp., MA, USA) reagent. Cells were seeded 2 × 10^3 per well in the 96-well plate for 24 h, followed by treating at different concentrations of compounds for 72 h. Before the experiment, CCK8 was 10-fold diluted with the culture medium and then incubated with cells for 30 min. Finally, the OD was 450 nm absorbance and calculated for cell viability.

Data set [3] in a line: Brain distribution study, UPLC of plasma and brain tissue extract. Type of data set: in vivo. Particulars: mouse, ip, C57BL/6 mice, 360 mg/kg intraperitoneal. How it is done:
The liquid chromatography was performed on an Acquity H class UPLC system (Waters Corp., Massachusetts, U.S.) equipped with an ACQUITY Premier PDA eλ detector (Waters Corp., Massachusetts, U.S.) with an autosampler temperature of 15 °C. Separation was performed at 25 °C on a Waters Acquity HSS T3 C18 column (2.1 mm × 100 mm, 1.8 μm particle size) with a gradient elution using A: water (containing 2 mM ammonium acetate and 0.1% formic acid) and B: acetonitrile as the mobile phase. The gradient program is as follows: 96% A (initial), 96% A (1 min), 65% A (7 min), 65% A (7.5 min), 96% A (8 min), and 96% A (12 min). The flow rate was set at 0.5 mL/min, and the injection volume was 3 μL. The UV wavelength was adjusted to 254 nm for compound 1 detection.
Following anesthesia of mice with isoflurane, blood samples were collected via a cardiac puncture. The blood was centrifuged at 2000g for 20 min at 4 °C to obtain plasma. Plasma samples were then mixed with an equal volume of 1 M zinc sulfate heptahydrate solution (cat. no. 221376, Sigma-Aldrich) and allowed to stand for 30 min. Subsequently, the mixture was centrifuged at 12,000g for 30 min at 4 °C, and the supernatant was collected for analysis. Brain tissues were homogenized using a Tenbroeck tissue grinder at a ratio of 5 μL of DMSO per mg of tissue. The homogenates were then centrifuged at 12,000g for 30 min at 4 °C, and the supernatant was collected for analysis.
Compound 1 was prepared in DMSO at a concentration of 180 mg/mL, and […] at 30 mg/mL. C57BL/6 mice were intraperitoneally injected with compound 1 at 360 mg/kg, TMZ at […], or DMSO at 2 μL/g as the control group. Mice were sacrificed by intraperitoneal injection after 30 min, and plasma as well as brain tissue extracts were collected following the aforementioned procedures.

Data set [4] concerns PT#3-R TMZ-resistant GBM cell line. Nature of the data set: cells. Particulars: MTT. In kind it is cell-based. How it is done:
The cytotoxic effects of these compounds were assessed using the MTT assay (Table 1 and Supporting Information IV).
MTT assay was employed to evaluate the cytotoxicity of the synthesized compound against resistant GBM cells. The MTT (3-(4,5-dimethylthiazol-2-yl)-2,5-diphenyltetrazolium bromide, catalog no. AM0818-0005) powder was purchased from BIONOVAS (Ontario, Canada). The MTT was prepared at 10 mg/mL stock with ultrapure water and then stored at −20 °C. […] Before the experiment, the MTT stock was 10-fold diluted with the culture medium and then incubated with cells for 30 min. After the incubation, the MTT medium was discarded and added 300 μL of dimethyl sulfoxide (DMSO, cat. no. D2650, Sigma-Aldrich, MO, USA) to dissolve the cells.

Data set [5] relates to A172-R TMZ-resistant GBM cell line. Nature of the data set: MTT cytotoxicity assay, A172-R. Particulars: Homo sapiens, 72 h. Type of data set: cell-based. The protocol: We utilized linezolid as the structural foundation to confirm the cytotoxicity of linezolid-conjugated functional domains against glioblastoma (GBM). We combined it with the binding structures of anti-histone deacetylases (HDACs) (denoted as compounds 1–5 and 11–14), antitubulin (compound 6), anticyclooxygenase (COX) (compound 7), and anti-heat shock protein 90 (Hsp90) (compounds 8–10). These constructs were then administered to TMZ-resistant GBM cell lines A172R and PT#3R at concentrations ranging from 0 to 80 μM over 72 h. The cytotoxic effects of these compounds were assessed using the MTT assay (Table 1 and Supporting Information IV). […] Given the remarkable cytotoxicity of compound 1 on both A172-R and PT#3-R TMZ-resistant cells, this study subsequently focused on compound 1 for further in-depth investigation and mechanistic exploration. To validate that the cytotoxic effect of compound 1 on GBM is not attributed to linezolid alone, we separately treated the TMZ-resistant GBM cell line PT#3-R with compound 1 and linezolid. […] This confirms that the cytotoxicity of compound 1 against GBM is primarily attributable to the inhibitory structure of linezolid-conjugated HDAC (Figure 2A). Furthermore, we compared the cytotoxic effects of compound 1 on various wild-type brain tumor cell lines, including U87MG, PT#3, LN229 GBM cells, and CT-2A mouse astrocyte cell line as well as TMZ-resistant variants cell lines, including U87MG-R, PT#3-R, CT-2A-R, and T98G (MGMT-positive). […] Additionally, we further confirmed the efficacy of compound 1 in GBM treatment.
MTT assay was employed to evaluate the cytotoxicity of the synthesized compound against resistant GBM cells. The MTT (3-(4,5-dimethylthiazol-2-yl)-2,5-diphenyltetrazolium bromide, catalog no. AM0818-0005) powder was purchased from BIONOVAS (Ontario, Canada). The MTT was prepared at 10 mg/mL stock with ultrapure water and then stored at −20 °C. All cells were seeded 2.5 × 10^4 per well in the 24-well plate for 24 h, followed by treating at different concentrations of compounds for 72 h. Before the experiment, the MTT stock was 10-fold diluted with the culture medium and then incubated with cells for 30 min. After the incubation, the MTT medium was discarded and added 300 μL of dimethyl sulfoxide (DMSO, cat. no. D2650, Sigma-Aldrich, MO, USA) to dissolve the cells. Finally, 100 μL of the mixture was transferred to measure the OD 595 nm absorbance.

Each structure is given as a SMILES string. Read-outs that look alike come from different tables or passages of the source.

For the compound `O=C(/C=C/c1ccc(CNC[C@H]2CN(c3ccc(N4CCOCC4)c(F)c3)C(=O)O2)cc1)NO` [compound 1, (S,E)-3-(4-((((3-(3-Fluoro-4-morpholinophenyl)-2-oxooxazolidin-5-yl)methyl)ami-no)methyl)phenyl)-N-hydroxyacrylamide], the Rad51 ubiquitination entry in data set [1] is “significant increase in Rad51 ubiquitination”. Also, the IC50 in data set [2] was 10.3 ± 0.52 µM; in data set [4] (Homo sapiens, 72 h), 12.1 ± 1.48 µM; in data set [5], 17.4 ± 1.21 µM. The concentration at 30 min in data set [3] (brain, read-out: Brain conc.) came to 831 ng/mL; in data set [3] (plasma, read-out: Plasma conc.), 656 ng/mL. For the same compound, the Kp at 0.5 h in data set [3] (brain/plasma, 30 min, read-out: brain/plasma (B/P) ratio) turned out to be 1.27. In data set [4] (20 μM and above), the “cytotoxic effect on resistant GBM cells” value is “significant cytotoxic effect”.
